One assay concerns ptc>dRet^M955T flies. Briefly: Fly rescue assay (Drosophila MTC model ptc>dRet^M955T). Format: in vivo. As to conditions: compound in fly food; for rescue (percent viability of adult flies, adults/pupae×100): 13 d at 25° C., baseline viability 0%. As for the experimental part:
Kinase-mutated fly stocks were obtained from Bloomington Drosophila Stock Center (BDSC; Bloomington, IN). The active mutant form of Drosophila Ret (dRet^955T) carries an M955T mutation corresponding to the M918T mutation commonly reported for multiple endocrine neoplasia (MEN) type 2B patients12,14,16,34. The ptc-gal4, UAS-GFP;UAS-dRet^M955T/SM5tub-gal80-TM6B transgenic flies were prepared according to standard protocols and crossed with non-transgenic w-flies (BDSC) to generate ptc-gal4, UAS-GFP; UAS-dRet^M955T(ptc>dRet^M955T) flies for chemical screening.
All drugs were synthesized in-house. All compounds were dissolved in DMSO (Sigma-Aldrich; St. Louis, MO) and mixed with semi-defined fly medium (BDSC) to make drug food (0.1% final DMSO concentration). For drug screening, ptc>dRet^M955T embryos were raised until adulthood on drug food for 13 d at 25° C. The number of empty pupal cases (i.e., adults) ? that of total pupal cases (P) to determine % viability. Fly randomization was used throughout the assays.
In this model, compounds are assessed based on their ability to suppress oncogenic Ret^M955T-induced tumors, which can be quantified as ‘rescue’ from lethality. […] The baseline viability of ptc>Ret^1955T flies was calibrated to zero, which creates a high bar for rescue but also reduces false-positive hits. Hundreds of flies are tested per condition (typical n values are […] administered through fly food.

For assay [1], the target named is T1, wild-type RET kinase domain (Homo sapiens, UniProt P07949).
T1 construct: determined against recombinant-human, wild-type RET kinase domain; phage display fusion (kinase expressed on phage); purchased DiscoverX (Fremont, CA); host or cells: phage
T1 sequence (P07949 724-1016 limits assumed): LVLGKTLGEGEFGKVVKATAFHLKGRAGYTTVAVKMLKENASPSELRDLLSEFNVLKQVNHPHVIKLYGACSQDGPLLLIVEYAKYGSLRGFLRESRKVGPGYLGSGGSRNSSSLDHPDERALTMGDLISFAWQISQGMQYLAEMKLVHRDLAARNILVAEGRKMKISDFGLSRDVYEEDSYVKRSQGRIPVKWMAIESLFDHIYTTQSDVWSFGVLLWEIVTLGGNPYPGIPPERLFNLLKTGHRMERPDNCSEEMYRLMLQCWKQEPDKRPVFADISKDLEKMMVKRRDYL
Briefly: Wild-type RET Kd, bead based competition assay (KINOMEscan, DiscoverX). Format: binding. The note with it: recombinant human wild-type RET kinase domain, average of two replicates; read-out: Kd towards wild-type RET. As for the experimental part: Wild-type RET Kd values were determined by DiscoverX (Fremont, CA) using a bead based competition assay (KINOMEscan). In brief, kinases are expressed on phage and immobilized on beads via active site-directed ligands. Test compounds are premixed with kinases and assayed for the ability to compete for immobilized ligands. Binding constants are calculated with a standard dose-response curve and the Hill equation, with Hill slope set to −1. […] Kd values are the average of two experimental replicates.
To assess if the differences in activity between R^F- and R^H-analogs were related to alterations in target engagement, representative analogs for binding on wild-type RET were compared. For this KD values of compounds 40 (para-C2F5) and 50 (para-C2H5) were determined against recombinant-human, wild-type RET kinase domain.

Assay [2] deals with panel of 468 purified human kinases. Description: In vitro kinase percent inhibition, panel of 468 kinases (DiscoverX). Format: binding. The note with it: 1 μM; for binding to wild-type RET and RET^M918T, in words: kinase panel. As for the experimental part:
Compounds were assayed against a panel of 468 purified human kinases (DiscoverX) to measure percentage inhibition values and derive kinome profiles (FIGS. 3B-3C). All compounds were screened at 1 μM, using two experimental replicates to determine percent inhibition values. Detailed procedures for kinase reactions and assay formats are described at http://www.discoverx.com. Raw data sets for individual compounds were filtered based on the variance of experimental replicates (cutoff=average variance+standard deviation).

In assay [3] the test system is HCC tumor organoids, BC (B-Catenin). Description: 3D HCC tumor organoid viability, BC model. Format: cell-based. As to conditions: 5.0 μM, viability three days post drug administration. As for the experimental part: (§1) For assays in HCC tumor organoids, 96 well plates were first coated with a 50:50 solution of basal media:Matrigel ([…]), which polymerized for 15 minutes at 37° C. Tumor organoids were taken out of Matrigel, broken, and washed. Tumor organoids were seeded at 1,000 cells per well and were treated the following day with single doses of drugs in technical triplicate. Final DMSO concentrations were kept below 0.5%. Cell viability was measured three days post drug administration with either luminescence from CellTiter-Glo or absorbance at 560 and 590 nm from resazurin. Viability data was analyzed by normalizing individual drug-treated well values to DMSO-treated wells (BC=B-Catenin; SR=sorafenib resistant). Results of 3D HCC cell line data for pyrazolo- and pyrrolopyrimidine compounds at 0.5 μm (FIGS. 22A-F), 0.05 μm (FIGS. 23A-F), and 5.0 μm (FIGS. 24A-F) were obtained. […] In the BC model, at 5.0 μM, the top ten compounds were: APS-8-100-4, APS-8-52-3, APS-8-51-4, APS-7-25-2, APS-8-100-3, APS-8-51-3, APS-8-50-4, APS-8-52-4, and APS-7-38. In the SR model, at 5.0 μM, the top ten compounds were: APS-8-51-3, APS-8-50-4, APS-8-51-4, APS-8-52-3, APS-8-50-3, APS-7-52-2, APS-8-52-4, APS-7-52-1, and APS-8-100-4.

Assay [4] has as its system HCC tumor organoids, SR (sorafenib resistant). Briefly: 3D HCC tumor organoid viability, SR model. As to conditions: 5.0 μM, viability three days post drug administration. Format: cell-based. As for the experimental part: as §1
Another assay deals with AKSP CRC tumoroid line. Description: 3D CRC tumoroid viability, AKSP model. Format: cell-based, mice. The note with it: at 5.0 μM, viability after 72 hours. As for the experimental part:
To model different stages of colorectal cancer (CRC), intestinal organoids were derived from genetically engineered mice with the following genotypes Apc^flx/flx (A) and Apc^flx/flx Kra^LSL-G12D Smad4^flx/flx (AKS) and transformed ex vivo by addition of 100 nM 4-OHT for 24 hours. Once the organoids acquired a spheroid morphology characteristic of CRC Tumoroids, trp53 was knocked out in AKS tumoroids using CRISPR-CAS9 technology to generate the AKSP line. CRC tumoroid lines as well as wild type intestinal organoids were seeded onto Matrigel in 96 well plates in triplicates 16 hours before being treated with the indicated compounds at a final concentration of 0.5 μM. 72 hours later, cell viability was assessed using Titerglo® assay. Results of 3D CRC organoid line data for pyrazolo- and pyrrolopyrimidine compounds at 0.5 μm were obtained (FIGS. 25A-G). […] In the AKSP model, at 5.0 μM, the top ten compounds were: APS-8-35-3, APS-8-35-4, APS-6-87, APS-9-3, AD80, APS-8-85-2, APS-8-51-3, APS-9-2, and APS-8-56-4.

For a further assay, the system named is RET (WT and M918T). Description: NanoBRET cell based target engagement assay. As to conditions: RET-Nluc in HEK 293T cells. (In general: Bioluminescence resonance energy transfer reports proximity on the nanometre scale.)

Data on 11 compounds can be found in patent US20240287081A1, “PERFLUOROALKANE SUBSTITUTED PYRAZOLO[3,4-D]PYRIMIDIN AND PYRROLO[2,3-D]PYRIMIDIN COMPOUNDS AND USES THEREOF” (ICAHN SCHOOL OF MEDICINE AT MOUNT SINAI, priority 2021, published 2024).

The structures appear in SMILES notation.

Description for RET (WT and M918T): Assays were completed in duplicate. […] FIG. 8D is a graph of the cell-based target engagement for the indicated compounds against wild-type and M918T RET. IC50 values were determined based on 8-point titration curves of free ligand. Competition assays were completed in technical triplicate against full-length human RET-Nluc expressed in 293T cells, complexed with an active-site fluorescent tracer.
In this assay, a bioluminescence resonance energy transfer (BRET) signal is generated between nanoLuciferase tagged RET (expressed in HEK 293T cells) and an active-site based fluorescent tracer. […] Using this assay, in vivo binding was determined for a series of compounds against mutant (M918T) and wild-type RET (FIG. 8D).

As usually defined, the Kd is the equilibrium constant for the complex coming apart. Take `CNC(=O)c1cc(Oc2ccc(NC(=O)Nc3ccc(C(F)(F)F)cc3)c(F)c2)ccn1` [APS-4-9-8]: in the assay with ptc>dRet^M955T flies, the “rescue activity in the fly model, in words” value was “no fly rescue” and the “rescue (percent viability of adult flies, adults/pupae×100)” value is 0%. For the same compound, the Kd in assay [1] was 0.0028 µM. Besides, the “binding to wild-type RET and RET^M918T, in words” value in assay [2] was “strong binding to wild-type and mutant RET^M918T”. In assay [2] (panel of 468 kinases), the “binding profile / selectivity across the kinome, in words” value is given as “strong binding to a large group of kinases”. For the same compound, the “binding profile / selectivity across the kinome, in words” value in assay [2] (panel of 468 kinases, listed as 4-9-8) was “low overall selectivity”.
With `CC(C)n1nc(-c2ccc(NC(=O)Nc3ccc(C(F)(F)C(F)(F)C(F)(F)F)cc3)cc2)c2c(N)ncnc21` [APS-8-51-3, 1-(4-(4-Amino-1-isopropyl-1H-pyrazolo[3,4-d]pyrimidin-3-yl)phenyl)-3-(4-(perfluoropropyl)phenyl)urea], the “ranking by inhibition of cell proliferation, BC model” value in assay [3] is “top ten”. Also, the “ranking by inhibition of cell proliferation, SR model” value in assay [4] is recorded as “top ten”. For the same compound, in the assay with AKSP CRC tumoroid line, the “ranking by inhibition of cell proliferation, AKSP model” value (from here on “ranking by inhibition … AKSP model”) is listed as “top ten”.
As for `CNC(=O)c1cc(Oc2ccc(NC(=O)Nc3ccc(C(F)(F)C(F)(F)C(F)(F)C(F)(F)F)cc3)c(F)c2)ccn1` [APS-8-52-2], the Kd in assay [1] worked out at 0.1 µM.
For `CC(C)n1nc(-c2ccc(NC(=O)Nc3cc(C(F)(C(F)(F)F)C(F)(F)C(F)(F)F)ccc3F)cc2)c2c(N)ncnc21` (centres unmarked) [APS-8-35-3, 1-(4-(4-Amino-1-isopropyl-1H-pyrazolo[3,4-d]pyrimidin-3-yl)phenyl)-3-(2-fluoro-5-(perfluorobutan-2-yl)phenyl)urea], in the assay on RET (WT and M918T) (pyrazolo- and pyrrolopyrimidine series), the “cellular IC50 against RET, ranking in words” value is given as “highest IC50 values”. Moreover, the “ranking by inhibition … AKSP model” value in the assay on AKSP CRC tumoroid line was “top ten”.
Take `CNC(=O)c1cc(Oc2ccc(NC(=O)Nc3ccc(C(F)(C(F)(F)F)C(F)(F)C(F)(F)F)cc3)c(F)c2)ccn1` (centres unmarked) [APS-8-82-1]: in the assay on ptc>dRet^M955T flies, the “rescue (percent viability of adult flies, adults/pupae×100)” value is reported as 85%. The Kd in assay [1] was 0.11 µM. The “binding to wild-type RET and RET^M918T, in words” value in assay [2] was “selective for mutant RET^M918T”; in assay [2] (listed as 8-82-1), “selectivity for the M918T mutant over wild-type”. Also, the “binding profile / selectivity across the kinome, in words” value in assay [2] (panel of 468 kinases) is “highly selective across the kinome”. The “number of kinases bound with >80% efficacy” value in assay [2] (panel of 468 kinases) is 7.
In the case of `CC(C)n1nc(-c2ccc(NC(=O)Nc3cc(C(F)(F)F)ccc3F)cc2)c2c(N)ncnc21` [AD80, 1-(4-(4-amino-1-isopropyl-1H-pyrazolo[3,4-d]pyrimidin-3-yl)phenyl)-3-(2-fluoro-5-(trifluoromethyl)phenyl)urea, reference compound], the “rescue (percent viability of adult flies, adults/pupae×100)” value with ptc>dRet^M955T flies is given as 80%. The “cellular IC50 wild-type RET versus M918T mutant, in words” value in the assay on RET (WT and M918T) is “slightly lower IC50 value for wild-type RET over mutant”. In addition, the “ranking by inhibition … AKSP model” value in the assay with AKSP CRC tumoroid line is “top ten”.
As for `CC(C)n1cc(-c2ccc(NC(=O)Nc3cccc(C(F)(C(F)(F)F)C(F)(F)C(F)(F)F)c3)cc2)c2c(N)ncnc21` (centres unmarked) [APS-8-56-4, 1-(4-(4-Amino-7-isopropyl-7H-pyrrolo[2,3-d]pyrimidin-5-yl)phenyl)-3-(3-(perfluorobutan-2-yl)phenyl)urea], the “ranking by inhibition … AKSP model” value in the assay with AKSP CRC tumoroid line is reported as “top ten”.
On to `CC(C)n1cc(-c2ccc(NC(=O)Nc3cccc(C(F)(F)C(F)(F)F)c3)cc2)c2c(N)ncnc21` [APS-9-3, 1-(4-(4-Amino-7-isopropyl-7H-pyrrolo[2,3-d]pyrimidin-5-yl)phenyl)-3-(3-(perfluoroethyl)phenyl)urea 2,2,2-trifluoroacetate], for which the “ranking by inhibition … AKSP model” value in the assay with AKSP CRC tumoroid line was “top ten”.
`CC(C)n1cc(-c2ccc(NC(=O)Nc3cccc(C(F)(F)F)c3)cc2)c2c(N)ncnc21` [APS-9-2, 1-(4-(4-Amino-7-isopropyl-7H-pyrrolo[2,3-d]pyrimidin-5-yl)phenyl)-3-(3-(trifluoromethyl)phenyl)urea]: the “ranking by inhibition … AKSP model” value with AKSP CRC tumoroid line was “top ten”.
As to `CC(C)n1cc(-c2ccc(NC(=O)Nc3cc(C(F)(F)F)ccc3F)cc2)c2c(N)ncnc21` [APS-6-87, 1-(4-(4-Amino-7-isopropyl-7H-pyrrolo[2,3-d]pyrimidin-5-yl)phenyl)-3-(2-fluoro-5-(trifluoromethyl)phenyl)urea], in the assay with AKSP CRC tumoroid line, the “ranking by inhibition … AKSP model” value is “top ten”.
In the case of `CC(C)n1cc(-c2ccc(NC(=O)Nc3cc(C(F)(C(F)(F)F)C(F)(F)C(F)(F)F)ccc3F)cc2)c2c(N)ncnc21` (centres unmarked) [APS-8-35-4, 1-(4-(4-Amino-7-isopropyl-7H-pyrrolo[2,3-d]pyrimidin-5-yl)phenyl)-3-(2-fluoro-5-(perfluorobutan-2-yl)phenyl)urea 2,2,2-trifluoroacetate], the “ranking by inhibition … AKSP model” value with AKSP CRC tumoroid line is on record as “top ten”.
